# Measurements taken from patent US20070299084A1, “Indole Derivatives Useful for Treating Resistance to Antitumor Agents” (NIKEM RESE S.R.L., priority 2004, published 2007).
# Marks after values point to notes of the source that are not given here.
# Key:
# [1] = tested on: HT29/Mit cells (mitoxantrone-resistant human colon carcinoma, BCRP overexpression); test: Antiproliferative activity, 72 h treatment, SRB assay, HT29/Mit
# Description: HT29 and HT29/Mit (line obtained by prolonged exposure to mitoxantrone, and characterised by overerexpression of BCRP, which confers cross resistance to topotecan, irinotecan and to its metabolite SN38): maintained in McCoy 5A medium+10% FCS.
# The cells (HT29 and HT29/Mit:. 40,000 cells/ml, LoVo, LoVo/Dx and HCT116: 50,000 cells/ml) are seeded in 100 μl of the respective culture media in 96-well plates. 24 hours after seeding, an aliquot (10 μl) of drug at the various concentrations is added. In the samples in which the effect of the combination of two compounds is to be tested the inhibitor is added immediately before the cytotoxic. For each dose or combination of doses/drugs the effect of the treatment is determined in 4-8 replicates.
# After 72 hours of treatment the antiproliferative effect is evaluated using the sulforhodamine B (SRB) assay: the cells are fixed by adding 25 μl of 50% TCA to each well and left for 1 hour at 4° C. After washing them with water and allowing them to dry, 100 μl of 0.4% SRB in 1% acetic acid are added and left for 30 minutes at room temperature. After 4 washes in 1% acetic acid, they are left to dry, then the dye fixed by the proteins is dissolved under basic conditions with 100 μl 10 mM cold Tris and the solution is read using a spectrophotometer at 550 nm.
# Percentage cell growth is calculated as the optical density of treated samples compared to the optical density of controls (untreated cells).
# The Combination Index (C.I.) was determined according to Kern's method, 1988 (who continued from Drewinko B, 1976) (Kern D. H., Cancer Res. 48, 117-121, 1988; Drewinko B., Cancer Biochem. Biophys. 1, 187-195, 1976) by means of the following formula: […], where SFa and SFb are the fractions of cells surviving to treatment with compound a and b, respectively; SFab is the fraction surviving to the combination of compounds a and b.
# [2] = tested on: SH-SY5Y cells (human neuroblastoma); test: Antiproliferative activity, 48 h treatment, ATPlite luminescence assay, SH-SY5Y; type: cell-based; details: Homo sapiens, SH-SY5Y, 48 h, read-out: Antiproliferative activity (IC50 ± S.D., μM) SHSY-5Y
# Description: SH-SY5Y and SK-N-BE(2): maintained in HAM-F12 medium+10% FCS.
# (§1) 24 hours after seeding, an aliquot (10 μl) of the drug at the various concentrations is added (for each concentration there are 3 replicates). After 48 hours of treatment the antiproliferative effect is evaluated with a luminescence assay (Perkin Elmer Life Sciences ATPlite):
# (§2) 50 μl of a lysis solution are added to each well followed by an equal volume of a solution containing luciferase and D-luciferin. The ATP present in all the metabolically active cells brings about the transformation reaction of D-luciferin, catalysed by luciferase, to produce a luminescent signal as described in the following scheme: ATP+D-luciferin+O2→Oxyluciferin+AMP+PPi+CO2+Light
# (§3) The luminescence produced (expressed in counts per second, CPS) is measured by means of a microplate scintillation analyzer (Perkin Elmer Life Sciences Top Count).
# (§4) Percentage inhibition of luminescence in the treated cells compared to the control is calculated; concentration-response curves are then analysed using Grafit v.5.0.
# [3] = tested on: A2780 cells (human ovarian carcinoma); test: Antiproliferative activity, 48 h treatment, ATPlite luminescence assay, A2780; type: cell-based; details: Homo sapiens, A2780, 48 h, read-out: Antiproliferative activity (IC50 ± S.D., μM) A2780
# Description: as §1, §2, §3, §4
# HT29 line = test: Apoptosis experiment (Tunel); type: cell-based, human
# Description: 1.5×10^6 cells/sample are seeded. After 24 hours the cells are treated with the compounds for 48 or 72 hours. At the end of the treatment, the cells are detached with Trypsin/EDTA, washed in PBS (phosphate buffered solution) and incubated for 45 minutes at room temperature in 1 ml of 4% paraformaldehyde.
# The cells are then washed with PBS and resuspended in 100 μl of permeabilizing solution (0.1% triton in 0.1% sodium citrate) for 2 minutes in ice. After a further wash, the cells are resuspended in 50 μl of Tunel reaction mix (Boehringer Mannheim) and left at 37° C. for 1 hour in the dark. After washing in PBS, the cells are resuspended in PBS and analysed by cytofluorimeter or examined by fluorescence microscope.
# H460 primary tumor = test: H460 human non-small cell lung carcinoma xenograft, antitumor activity on the primary tumor; type: in vivo, athymic Swiss nude mice; details: H460 s.c., p.o. for 8 weeks, topotecan 1 mg/kg, compound of example 2 30 mg/kg
# Description: Female athymic Swiss nude mice (8-10 weeks old) (Charles River, Calco, Italy) were used for the experiments, as described above.
# H460 cells were injected i.p. into nude mice, adapted to grow as ascitis and maintained in vivo by i.p. passages (5×10^6 cells/mouse in 0.5 ml PBS) (Pratesi G., Br. J. Cancer 63, 71-74, 1991). Briefly, cells were collected from the donor mice about 7 days after inoculum. After washing, cell number and viability were determined by trypan blue exclusion. Such procedure allowed to obtain a single cell suspension easily available for s.c or i.v. injection.
# (§5) The effects of the compounds of the invention and/or topotecan on the growth of primary tumors and spontaneous lung metastasis were tested in mice inoculated s.c. in the right flank with H460 ascitic tumor cells (2×10^6/mouse). Each control or drug-treated group included 9-11 mice. The s.c. tumor growth was followed by biweekly measurements of tumor diameters with a Vernier caliper. Drug treatment was delivered orally, for 8 weeks, from day 1. Topotecan was delivered at the dose of 1 mg/kg and compounds of the invention were delivered at the dose of 30 mg/kg; in the combination group the compounds of the invention were delivered almost 1 hour after topotecan treatment. Control mice were solvent-treated orally in parallel with drug treatments.
# (§6) Drug efficacy was assessed as mean percentage tumor weight inhibition in drug-treated versus control mice expressed as tumor weight inhibition % (TWI %)=100−(mean tumor weight treated/mean tumor weight control×100), evaluated during and after drug treatment. Drug tolerability was assessed in tumor-bearing mice as either lethal toxicity, i.e., any death in treated mice occurring before any control death, or percentage body weight loss (BWL %)=100−(body weight on day x/body weight on day 1×100), where x represents a day after or during the treatment period.
# [4] = Drug tolerability in H460 tumor-bearing mice (lethal toxicity); details: athymic Swiss nude, mouse, in vivo, 8 weeks
# Description: as §5, §6
smiles,measurement,setting,value
CCOc1cc(C(=O)NC2CC(C)(C)NC(C)(C)C2)ccc1-c1cc2cc(Cl)c(Cl)cc2[nH]1 [Example 2],Effect on antiproliferative activity of topotecan,"[1]; HT29/Mit model, subtoxic and subactive concentrations (<1 μM) of compound of example 2",enhanced antiproliferative activity of topotecan
same,Effect on cell growth of compound of example 2 alone,"[1]; HT29/Mit, 72 hours, 0.5 μM",does not itself inhibit cell growth
same,IC50,"[1]; Homo sapiens, HT-29, 72 h, read-out: Antiproliferative activity (IC50 ± S.D., μM) HT-29/Mit",0.9 ± 0.2 µM
same,IC50,[2],6.8 ± 0.5 µM
same,IC50,[3],1.9 ± 0.1 µM
same,Induction of apoptosis,HT29 line,high level of apoptosis
same,LCK (Log10 Cell Kill),H460 primary tumor,0.6
same,Max TWI (day 56) (Maximal Tumor weight inhibition achieved),H460 primary tumor; listed as Compound of example 2,58* %
same,Max TWI (day 56) (Maximal Tumor weight inhibition achieved),H460 primary tumor; listed as compound of example 2,58%
same,Tox/Tot (any death in treated mice occurring before any control mice),[4],0/10
